Test results published in patent publication US11648199B2 (AI Therapeutics, Inc, priority 2014, dated 2023).
Like-named read-outs stand apart in the source and are kept apart here.

Legend:
[1] = system: phosphorylated S6 protein (mTOR activity); assay: Phosphorylated S6 in mouse lung after OPA or oral rapamycin; format: in vivo, C57bl/6 mice
Text: To validate this approach, we used the presence of phosphorylated S6 protein in murine lung tissue as a biomarker for mTOR activity. In the mouse strain used (C57b1/6), the mouse airway and alveolar epithelial cells have constitutively active (phosphorylated, “p”) S6 protein. The S6 protein is typically phosphorylated by S6K which is downstream of mTORC1 and is activated, for example, downstream of growth factors such as epidermal growth factor (EGF), AKT, ERK, and RSK. mTORC1 promotes cell growth and proliferation by stimulating anabolic processes such as biosynthesis of lipids, proteins, and organelles, and suppressing catabolic processes such as autophagy.

[2] = Lung concentration of rapamycin after inhalation, Study Day 1; format: in vivo, Sprague-Dawley rats
Text: The results of this initial study were replicated and expanded in additional rat studies and dog studies. […] Two sets of animals were used to perform the toxicokinetic measurements for this study.

[3] = 28-day repeat dose inhalation toxicokinetics, study 7300225; format: in vivo, SD rats; conditions: average of D28
Text: Two sets of animals were used to perform the toxicokinetic measurements for this study.

[4] = 28-day repeat dose inhalation toxicokinetics, study 7300227; format: in vivo, Beagle dogs; conditions: for concentration at 24 h: Beagle, dog, lung, read-out: Lung 24 hr trough levels; for Blood trough levels / Max blood levels: average of D28
Text: For the dog study, a positive flow delivery system (PFDS) consisting of a central plenum and delivery arms was utilized. The central plenum was of modular design with separate ports into which were attached 5 delivery arms fitted with oronasal exposure masks fitted with inlet and outlet tubes. The mask was fitted over the dog's muzzle in such a way that the nose was inside the mask, allowing entrance and exit of air. During exposure, animals wore a harness and were placed on a restraint platform. The harness was attached to two side poles on the platform in order to restrict lateral movement of the dog. The front part of the harness was loosely attached to a hook on the front of the platform to prevent the animal from turning around. […] For each dosing group, one set of animals (N=6) was dosed for 60 minutes each day for 28 consecutive days.

[5] = Extrapolation of rat and dog inhalation data to human dosing; conditions: extrapolated
[6] = 24 hours after 14th dose, cited from earlier work
in vivo = conditions: Sprague-Dawley, rat, inhaled
[7] = Observation for adverse effects / clinical signs after OPA dosing; conditions: for adverse effects / clinical signs: 1 mg/kg, up to 72 h after dosing
Procedure: The oral dose was formulated using pharmaceutical oral liquid formulation Rapamune Oral® (Pfizer). […] An additional group of 6 mice received vehicle only (10% ethanol in water). […] At the 72-h necropsy, blood was obtained by cardiac puncture and the lungs removed.
The time of dosing was recorded as 0. Animals in groups 2 and 3 were euthanized at 1 h after dosing.

[8] = emitted dose 50 ug, repeat inhaled daily dose 5 ug
[9] = emitted dose 2850 ug, repeat inhaled daily dose 285 ug
[10] = emitted dose 160 ug, repeat inhaled daily dose 40 ug
[11] = emitted dose 424 ug, repeat inhaled daily dose 106 ug
[12] = emitted dose 87 ug, repeat inhaled daily dose 35 ug
[13] = emitted dose 175 ug, repeat inhaled daily dose 70 ug

Compound: CO[C@H]1C[C@@H]2CC[C@@H](C)[C@@](O)(O2)C(=O)C(=O)N2CCCC[C@H]2C(=O)O[C@H]([C@H](C)C[C@@H]2CC[C@@H](O)[C@H](OC)C2)CC(=O)[C@H](C)/C=C(\C)[C@@H](O)[C@@H](OC)C(=O)[C@H](C)C[C@H](C)/C=C/C=C/C=C/1C [Rapamycin, (3 S,6R,7E,9R,10R,12R,14S,15E,17E,19E,21S,23 S,26R,27R,34aS)-9,10,12,13,-14,21,22,23,24,25,26,27,32,33,34,34a-hexadecahydro-9,27-dihydroxy-3-[(1R)-2-[(1S,3R,4R)-4-hydroxy-3-methoxycyclohexyl]-1-methylethyl]-10,21-dimethox-y-6,8,12,14,20,26-hexamethyl-23,27-epoxy-3H-pyrido[2,1-c][1,4]oxaazacyclohentriacontine-1,5,11,28,29(4H,6H,31H)-pentone]
- level of phosphorylated S6 (pS6) in lung ([1]; OPA 1 mg/kg, 1 hr (FIG. 8A)): reduced substantially
- level of phosphorylated S6 (pS6) in lung ([1]; OPA 1 mg/kg, 72 hr (FIG. 8A)): remained suppressed
- level of phosphorylated S6 (pS6) in lung ([1]; oral gavage 1 mg/kg, 1 hr (FIG. 8A)): reduced substantially
- concentration at 2 h post-dosing ([2]; Sprague-Dawley, rat, lung, inhaled, target dose 11 ug Day 1, 2 hr post-dosing, read-out: Avg Lung rapa): 250 ng/g
- concentration at 4 h post-dosing ([2]; Sprague-Dawley, rat, lung, inhaled, target dose 11 ug Day 1, 4 hr post-dosing, read-out: Avg Lung rapa): 192 ng/g
- concentration at 12 h post-dosing ([2]; Sprague-Dawley, rat, lung, inhaled, target dose 11 ug Day 1, 12 hr post-dosing, read-out: Avg Lung rapa): 95 ng/g
- Avg Lung rapa ([2]; target dose 11 ug Day 1, immediate post-dosing): 560 ng/g
- Avg Lung rapa ([2]; target dose 11 ug Day 1, midway dosing): 462 ng/g
- Blood trough levels [3, 8]: 2 ng/mL
- Max blood levels [3, 8]: 7.6 ng/mL
- Max blood levels ([3]; emitted dose 1425 ug, repeat inhaled daily dose 143 ug): 70.5 ng/mL
- Blood trough levels [3, 9]: 21.0 ng/mL
- Max blood levels [3, 9]: 77.8 ng/mL
- concentration at 24 h ([4]; inhaled, 106 ug): 61 ng/g
- concentration at 24 h ([4]; emitted dose 160 ug, repeat inhaled daily dose 40 ug, after 28 days): 32 ng/g
- Blood trough levels [4, 10]: 1.9 ng/mL
- Max blood levels [4, 10]: 7.4 ng/mL
- Blood trough levels [4, 11]: 5.9 ng/mL
- Max blood levels [4, 11]: 27.3 ng/mL
- Blood trough levels [5, 12]: 0.15 ng/mL
- Lung 24 hr trough levels [5, 12]: 2 ng/g
- Max blood levels [5, 12]: 0.65 ng/mL
- Blood trough levels [5, 13]: 0.3 ng/mL
- Lung 24 hr trough levels [5, 13]: 4 ng/g
- Max blood levels [5, 13]: 1.3 ng/mL
- Rapamycin in Blood ([6]; IV 0.04 mg/kg/day): 9.4 ng/mL
- Rapamycin in Lung ([6]; IV 0.04 mg/kg/day): 219 ng/g
- Rapamycin in Blood ([6]; IV 0.08 mg/kg/day): 15.0 ng/mL
- Rapamycin in Lung ([6]; IV 0.08 mg/kg/day): 457 ng/g
- Rapamycin in Blood ([6]; IV 0.40 mg/kg/day): 19.6 ng/mL
- Rapamycin in Lung ([6]; IV 0.40 mg/kg/day): 868 ng/g
- Rapamycin in Blood ([6]; oral 0.4 mg/kg/day): 0.8 ng/mL
- Rapamycin in Lung ([6]; oral 0.4 mg/kg/day): 42 ng/g
- Rapamycin in Blood ([6]; oral 0.8 mg/kg/day): 2.1 ng/mL
- Rapamycin in Lung ([6]; oral 0.8 mg/kg/day): 59 ng/g
- concentration at 12 h (in vivo; lung, 0.036 mg/kg/day): 95 ng/g
- concentration at 12 h (in vivo; lung, 1 mg/kg/day): ~14800 ng/g
- concentration at 12 h (in vivo; whole blood, 0.036 mg/kg/day): 4 ng/mL
- concentration at 12 h (in vivo; whole blood, 1 mg/kg/day): 645 ng/mL
- adverse effects / clinical signs [7]: No significant clinical signs were observed
- adverse effects / clinical signs ([7]; listed as rapamycin): No adverse effects were observed
- acute toxicity to lung tissue ([7]; OPA 1 mg/kg, relatively high amounts in lung): not acutely toxic to lung tissue
